{"source": "the supplement of paper PMC13380429", "conditions_in_all_cases": "72 h", "key": {"[1]": {"test_system": "U2OS", "assay": "drug sensitivity score (DSS) for viability; higher = more toxic; extreme values may be limits of the assay"}, "[2]": {"test_system": "Caco-2", "assay": "drug sensitivity score (DSS) for viability; higher = more toxic; extreme values may be limits of the assay"}, "[3]": {"test_system": "HepG2", "assay": "drug sensitivity score (DSS) for viability; higher = more toxic; extreme values may be limits of the assay"}, "[4]": {"test_system": "Vero E6", "assay": "drug sensitivity score (DSS) for viability; higher = more toxic; extreme values may be limits of the assay"}, "[5]": {"test_system": "Calu-3", "assay": "drug sensitivity score (DSS) for viability; higher = more toxic; extreme values may be limits of the assay"}, "[6]": {"test_system": "U2OS", "assay": "relative viability EC50 (midpoint between 100% and the lowest measured viability); higher = less toxic"}, "[7]": {"test_system": "Caco-2", "assay": "relative viability EC50 (midpoint between 100% and the lowest measured viability); higher = less toxic"}, "[8]": {"test_system": "HepG2", "assay": "relative viability EC50 (midpoint between 100% and the lowest measured viability); higher = less toxic"}, "[9]": {"test_system": "Vero E6", "assay": "relative viability EC50 (midpoint between 100% and the lowest measured viability); higher = less toxic"}, "[10]": {"test_system": "Calu-3", "assay": "relative viability EC50 (midpoint between 100% and the lowest measured viability); higher = less toxic"}, "[11]": {"test_system": "U2OS", "assay": "cell viability relative to DMSO; higher = less toxic"}, "[12]": {"test_system": "Caco-2", "assay": "cell viability relative to DMSO; higher = less toxic"}, "[13]": {"test_system": "HepG2", "assay": "cell viability relative to DMSO; higher = less toxic"}, "[14]": {"test_system": "Vero E6", "assay": "cell viability relative to DMSO; higher = less toxic"}, "[15]": {"test_system": "Calu-3", "assay": "cell viability relative to DMSO; higher = less toxic"}}, "data": [{"smiles": "O=C(O)C[C@H](O)C(=O)O", "note": "[malic-acid]", "values": [{"measurement": "drug sensitivity score", "setting": "[1]", "result": 0}, {"measurement": "drug sensitivity score", "setting": "[2]", "result": 0}, {"measurement": "drug sensitivity score", "setting": "[3]", "result": 0}, {"measurement": "drug sensitivity score", "setting": "[4]", "result": 0}, {"measurement": "drug sensitivity score", "setting": "[5]", "result": 0}, {"measurement": "relative viability EC50", "setting": "[6]", "result": "> 10", "unit": "µM"}, {"measurement": "relative viability EC50", "setting": "[7]", "result": "> 10", "unit": "µM"}, {"measurement": "relative viability EC50", "setting": "[8]", "result": "> 10", "unit": "µM"}, {"measurement": "relative viability EC50", "setting": "[9]", "result": "> 10", "unit": "µM"}, {"measurement": "relative viability EC50", "setting": "[10]", "result": "> 10", "unit": "µM"}, {"measurement": "cell viability", "setting": "[11]; 1 nM", "result": 105, "unit": "%"}, {"measurement": "cell viability", "setting": "[11]; 10 nM", "result": 101, "unit": "%"}, {"measurement": "cell viability", "setting": "[11]; 100 nM", "result": 103, "unit": "%"}, {"measurement": "cell viability", "setting": "[11]; 1000 nM", "result": 97.6, "unit": "%"}, {"measurement": "cell viability", "setting": "[11]; 10000 nM", "result": 101, "unit": "%"}, {"measurement": "cell viability", "setting": "[12]; 1 nM", "result": 93, "unit": "%"}, {"measurement": "cell viability", "setting": "[12]; 10 nM", "result": 91.8, "unit": "%"}, {"measurement": "cell viability", "setting": "[12]; 100 nM", "result": 99, "unit": "%"}, {"measurement": "cell viability", "setting": "[12]; 1000 nM", "result": 91, "unit": "%"}, {"measurement": "cell viability", "setting": "[12]; 10000 nM", "result": 99.8, "unit": "%"}, {"measurement": "cell viability", "setting": "[13]; 1 nM", "result": 101, "unit": "%"}, {"measurement": "cell viability", "setting": "[13]; 10 nM", "result": 95, "unit": "%"}, {"measurement": "cell viability", "setting": "[13]; 100 nM", "result": 94.6, "unit": "%"}, {"measurement": "cell viability", "setting": "[13]; 1000 nM", "result": 95.2, "unit": "%"}, {"measurement": "cell viability", "setting": "[13]; 10000 nM", "result": 95, "unit": "%"}, {"measurement": "cell viability", "setting": "[14]; 1 nM", "result": 98.1, "unit": "%"}, {"measurement": "cell viability", "setting": "[14]; 10 nM", "result": 107, "unit": "%"}, {"measurement": "cell viability", "setting": "[14]; 100 nM", "result": 96.5, "unit": "%"}, {"measurement": "cell viability", "setting": "[14]; 1000 nM", "result": 100, "unit": "%"}, {"measurement": "cell viability", "setting": "[14]; 10000 nM", "result": 95.5, "unit": "%"}, {"measurement": "cell viability", "setting": "[15]; 1 nM", "result": 102, "unit": "%"}, {"measurement": "cell viability", "setting": "[15]; 10 nM", "result": 108, "unit": "%"}, {"measurement": "cell viability", "setting": "[15]; 100 nM", "result": 92.3, "unit": "%"}, {"measurement": "cell viability", "setting": "[15]; 1000 nM", "result": 95.2, "unit": "%"}, {"measurement": "cell viability", "setting": "[15]; 10000 nM", "result": 95.2, "unit": "%"}]}, {"smiles": "CC(=O)O[C@]1(C(C)=O)CC[C@H]2[C@@H]3C[C@H](C)C4=CC(=O)CC[C@]4(C)[C@H]3CC[C@@]21C", "note": "[medroxyprogesterone-acetate]", "values": [{"measurement": "drug sensitivity score", "setting": "[1]", "result": 0}, {"measurement": "drug sensitivity score", "setting": "[2]", "result": 0}, {"measurement": "drug sensitivity score", "setting": "[3]", "result": 0}, {"measurement": "drug sensitivity score", "setting": "[4]", "result": 0}, {"measurement": "drug sensitivity score", "setting": "[5]", "result": 0}, {"measurement": "relative viability EC50", "setting": "[6]", "result": "> 10", "unit": "µM"}, {"measurement": "relative viability EC50", "setting": "[7]", "result": "> 10", "unit": "µM"}, {"measurement": "relative viability EC50", "setting": "[8]", "result": "> 10", "unit": "µM"}, {"measurement": "relative viability EC50", "setting": "[9]", "result": "> 10", "unit": "µM"}, {"measurement": "relative viability EC50", "setting": "[10]", "result": "> 10", "unit": "µM"}, {"measurement": "cell viability", "setting": "[11]; 1 nM", "result": 97.1, "unit": "%"}, {"measurement": "cell viability", "setting": "[11]; 10 nM", "result": 99, "unit": "%"}, {"measurement": "cell viability", "setting": "[11]; 100 nM", "result": 97, "unit": "%"}, {"measurement": "cell viability", "setting": "[11]; 1000 nM", "result": 96.2, "unit": "%"}, {"measurement": "cell viability", "setting": "[11]; 10000 nM", "result": 96.5, "unit": "%"}, {"measurement": "cell viability", "setting": "[12]; 1 nM", "result": 92.6, "unit": "%"}, {"measurement": "cell viability", "setting": "[12]; 10 nM", "result": 103, "unit": "%"}, {"measurement": "cell viability", "setting": "[12]; 100 nM", "result": 94.5, "unit": "%"}, {"measurement": "cell viability", "setting": "[12]; 1000 nM", "result": 101, "unit": "%"}, {"measurement": "cell viability", "setting": "[12]; 10000 nM", "result": 95.8, "unit": "%"}, {"measurement": "cell viability", "setting": "[13]; 1 nM", "result": 110, "unit": "%"}, {"measurement": "cell viability", "setting": "[13]; 10 nM", "result": 103, "unit": "%"}, {"measurement": "cell viability", "setting": "[13]; 100 nM", "result": 99.1, "unit": "%"}, {"measurement": "cell viability", "setting": "[13]; 1000 nM", "result": 95.1, "unit": "%"}, {"measurement": "cell viability", "setting": "[13]; 10000 nM", "result": 97.3, "unit": "%"}, {"measurement": "cell viability", "setting": "[14]; 1 nM", "result": 96.6, "unit": "%"}, {"measurement": "cell viability", "setting": "[14]; 10 nM", "result": 97.9, "unit": "%"}, {"measurement": "cell viability", "setting": "[14]; 100 nM", "result": 100, "unit": "%"}, {"measurement": "cell viability", "setting": "[14]; 1000 nM", "result": 98.3, "unit": "%"}, {"measurement": "cell viability", "setting": "[14]; 10000 nM", "result": 98.2, "unit": "%"}, {"measurement": "cell viability", "setting": "[15]; 1 nM", "result": 99.8, "unit": "%"}, {"measurement": "cell viability", "setting": "[15]; 10 nM", "result": 106, "unit": "%"}, {"measurement": "cell viability", "setting": "[15]; 100 nM", "result": 95.6, "unit": "%"}, {"measurement": "cell viability", "setting": "[15]; 1000 nM", "result": 101, "unit": "%"}, {"measurement": "cell viability", "setting": "[15]; 10000 nM", "result": 103, "unit": "%"}]}, {"smiles": "C[C@H]1C[C@@H]2[C@H]([C@@H](O)C[C@@]3(C)[C@H]2CC[C@]3(O)C(=O)CO)[C@@]2(C)C=CC(=O)C=C12", "note": "[methylprednisolone]", "values": [{"measurement": "drug sensitivity score", "setting": "[1]", "result": 0}, {"measurement": "drug sensitivity score", "setting": "[2]", "result": 0}, {"measurement": "drug sensitivity score", "setting": "[3]", "result": 0}, {"measurement": "drug sensitivity score", "setting": "[4]", "result": 0}, {"measurement": "drug sensitivity score", "setting": "[5]", "result": 0}, {"measurement": "relative viability EC50", "setting": "[6]", "result": "> 10", "unit": "µM"}, {"measurement": "relative viability EC50", "setting": "[7]", "result": "> 10", "unit": "µM"}, {"measurement": "relative viability EC50", "setting": "[8]", "result": "> 10", "unit": "µM"}, {"measurement": "relative viability EC50", "setting": "[9]", "result": "> 10", "unit": "µM"}, {"measurement": "relative viability EC50", "setting": "[10]", "result": "> 10", "unit": "µM"}, {"measurement": "cell viability", "setting": "[11]; 1 nM", "result": 102, "unit": "%"}, {"measurement": "cell viability", "setting": "[11]; 10 nM", "result": 97.9, "unit": "%"}, {"measurement": "cell viability", "setting": "[11]; 100 nM", "result": 91.4, "unit": "%"}, {"measurement": "cell viability", "setting": "[11]; 1000 nM", "result": 98.9, "unit": "%"}, {"measurement": "cell viability", "setting": "[11]; 10000 nM", "result": 95.2, "unit": "%"}, {"measurement": "cell viability", "setting": "[12]; 1 nM", "result": 96, "unit": "%"}, {"measurement": "cell viability", "setting": "[12]; 10 nM", "result": 108, "unit": "%"}, {"measurement": "cell viability", "setting": "[12]; 100 nM", "result": 90.3, "unit": "%"}, {"measurement": "cell viability", "setting": "[12]; 1000 nM", "result": 99.3, "unit": "%"}, {"measurement": "cell viability", "setting": "[12]; 10000 nM", "result": 98.4, "unit": "%"}, {"measurement": "cell viability", "setting": "[13]; 1 nM", "result": 109, "unit": "%"}, {"measurement": "cell viability", "setting": "[13]; 10 nM", "result": 107, "unit": "%"}, {"measurement": "cell viability", "setting": "[13]; 100 nM", "result": 103, "unit": "%"}, {"measurement": "cell viability", "setting": "[13]; 1000 nM", "result": 98.5, "unit": "%"}, {"measurement": "cell viability", "setting": "[13]; 10000 nM", "result": 104, "unit": "%"}, {"measurement": "cell viability", "setting": "[14]; 1 nM", "result": 104, "unit": "%"}, {"measurement": "cell viability", "setting": "[14]; 10 nM", "result": 103, "unit": "%"}, {"measurement": "cell viability", "setting": "[14]; 100 nM", "result": 96.6, "unit": "%"}, {"measurement": "cell viability", "setting": "[14]; 1000 nM", "result": 106, "unit": "%"}, {"measurement": "cell viability", "setting": "[14]; 10000 nM", "result": 101, "unit": "%"}, {"measurement": "cell viability", "setting": "[15]; 1 nM", "result": 105, "unit": "%"}, {"measurement": "cell viability", "setting": "[15]; 10 nM", "result": 102, "unit": "%"}, {"measurement": "cell viability", "setting": "[15]; 100 nM", "result": 99.3, "unit": "%"}, {"measurement": "cell viability", "setting": "[15]; 1000 nM", "result": 99.6, "unit": "%"}, {"measurement": "cell viability", "setting": "[15]; 10000 nM", "result": 106, "unit": "%"}]}]}
